According to PubChem BioAssay (NCI):
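Here, GI50 denotes the concentration required for 50% inhibition of growth. At the TGI there is no net growth.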

Key:
Assay in all cases: inhibition of tumour cell growth, NCI panel, 384-well format
[1] = tested on: 786-0 renal
[2] = tested on: A498 renal
[3] = tested on: A549 NSCLC
[4] = tested on: ACHN renal
[5] = tested on: BT-549 breast
[6] = tested on: CAKI-1 renal
[7] = tested on: CCRF-CEM leukemia
[8] = tested on: COLO 205 colon
[9] = tested on: DU-145 prostate
[10] = tested on: HCT-116 colon
[11] = tested on: HL-60(TB) leukemia
[12] = tested on: HOP-62 NSCLC
[13] = tested on: HOP-92 NSCLC
[14] = tested on: HS 578T breast
[15] = tested on: HT29 colon
[16] = tested on: IGROV1 ovarian
[17] = tested on: K-562 leukemia
[18] = tested on: KM12 colon
[19] = tested on: LOX IMVI melanoma
[20] = tested on: M14 melanoma
[21] = tested on: MALME-3M melanoma
[22] = tested on: MCF7 breast
[23] = tested on: MDA-MB-231 breast
[24] = tested on: MDA-MB-435 melanoma
[25] = tested on: MDA-MB-468 breast
[26] = tested on: MOLT-4 leukemia
[27] = tested on: NCI-H226 lung
[28] = tested on: NCI-H23 lung
[29] = tested on: NCI-H322M lung
[30] = tested on: NCI-H460 NSCLC
[31] = tested on: NCI-H522 lung
[32] = tested on: OVCAR-3 ovarian
[33] = tested on: OVCAR-4 ovarian
[34] = tested on: OVCAR-8 ovarian
[35] = tested on: PC-3 prostate
[36] = tested on: RPMI-8226 leukemia
[37] = tested on: RXF 393 renal
[38] = tested on: SF-268 CNS
[39] = tested on: SF-295 CNS
[40] = tested on: SF-539 CNS
[41] = tested on: SK-MEL-28 melanoma
[42] = tested on: SK-MEL-5 melanoma
[43] = tested on: SK-OV-3 ovarian
[44] = tested on: SN12C renal
[45] = tested on: SNB-19 CNS
[46] = tested on: SNB-75 CNS
[47] = tested on: SR leukemia
[48] = tested on: SW-620 colon
[49] = tested on: TK-10 renal
[50] = tested on: U251 glioblastoma
[51] = tested on: UACC-62 melanoma
[52] = tested on: UO-31 renal
[53] = tested on: EKVX NSCLC
[54] = tested on: HCC-2998 colon
[55] = tested on: NCI/ADR-RES ovarian
[56] = tested on: OVCAR-5 ovarian
[57] = tested on: T-47D breast
[58] = tested on: UACC-257 melanoma

Work on `CN[C@H]1CN(c2ccc3c(=O)c(C(=O)O)cn(-c4nccs4)c3n2)C[C@@H]1OC` yielded a GI50 [1] of 0.434 µM, a TGI [1] of 4.59 µM and a GI50 [2] of 0.781 µM. The TGI [2] was 3.83 µM, the GI50 [3] was 0.686 µM and the TGI [3] was > 100 µM. The GI50 [4] was 0.458 µM, the TGI [4] was 2.44 µM and the GI50 [5] was 0.585 µM. The TGI [5] was 6.87 µM, the GI50 [6] was 0.752 µM and the TGI [6] was 6.44 µM. It also gave a GI50 [7] of 0.0586 µM, a TGI [7] of 0.276 µM and a GI50 [8] of 0.394 µM. The TGI [8] was > 100 µM, the GI50 [9] was 1.49 µM and the TGI [9] was 7.07 µM. The GI50 [10] was 0.371 µM, the TGI [10] was 3.76 µM and the GI50 [11] was 0.0776 µM. The TGI [11] was 0.238 µM, the GI50 [12] was 0.479 µM and the TGI [12] was 2.2 µM. The GI50 [13] was 1.61 µM, the TGI [13] was 8.56 µM and the GI50 [14] was 0.64 µM. It also gave a TGI [14] of 5.24 µM, a GI50 [15] of 1.28 µM and a TGI [15] of 3.88 µM. The GI50 [16] was 1.8 µM, the TGI [16] was > 100 µM and the GI50 [17] was 0.616 µM. The TGI [17] was 6.05 µM, the GI50 [18] was 0.654 µM and the TGI [18] was 10.7 µM. It also gave a GI50 [19] of 0.776 µM, a TGI [19] of 2.12 µM and a GI50 [20] of 0.674 µM. It also gave a TGI [20] of 3.02 µM, a GI50 [21] of 1.06 µM and a TGI [21] of 2.7 µM. For the same molecule, the GI50 [22] was 0.602 µM, the TGI [22] was > 100 µM and the GI50 [23] was 1.41 µM. The TGI [23] was 11.4 µM, the GI50 [24] was 3.5 µM and the TGI [24] was > 100 µM. The GI50 [25] was 0.787 µM, the TGI [25] was 2.57 µM and the GI50 [26] was 0.0305 µM. The TGI [26] was 0.12 µM, the GI50 [27] was 1.23 µM and the TGI [27] was 3.6 µM. The GI50 [28] was 0.551 µM, the TGI [28] was 2.57 µM and the GI50 [29] was 3.52 µM. The TGI [29] was 39.7 µM, the GI50 [30] was 0.206 µM and the TGI [30] was 1.35 µM. It also gave a GI50 [31] of 1.21 µM, a TGI [31] of 5.61 µM and a GI50 [32] of 1.32 µM. The TGI [32] was 6.19 µM, the GI50 [33] was 4.36 µM and the TGI [33] was > 100 µM. The GI50 [34] was 0.637 µM, the TGI [34] was > 100 µM and the GI50 [35] was 2.41 µM. It also gave a TGI [35] of 15.4 µM, a GI50 [36] of 0.0605 µM and a TGI [36] of 1.18 µM. It also gave a GI50 [37] of 0.86 µM, a TGI [37] of 5.37 µM and a GI50 [38] of 0.421 µM. It also gave a TGI [38] of 6.03 µM, a GI50 [39] of 0.426 µM and a TGI [39] of 2.63 µM. For the same molecule, the GI50 [40] was 0.85 µM, the TGI [40] was > 100 µM and the GI50 [41] was 1.13 µM. For the same molecule, the TGI [41] was 2.93 µM, the GI50 [42] was 1.15 µM and the TGI [42] was 2.54 µM. It also gave a GI50 [43] of 1.8 µM, a TGI [43] of 26.3 µM and a GI50 [44] of 0.403 µM. For the same molecule, the TGI [44] was 2.77 µM, the GI50 [45] was 0.559 µM and the TGI [45] was 2.93 µM. For the same molecule, the GI50 [46] was 0.855 µM, the TGI [46] was 2.47 µM and the GI50 [47] was 0.0189 µM. It also gave a TGI [47] of 0.0443 µM, a GI50 [48] of 0.823 µM and a TGI [48] of 7.71 µM. For the same molecule, the GI50 [49] was 1.79 µM, the TGI [49] was 12.1 µM and the GI50 [50] was 0.675 µM. The TGI [50] was 2.56 µM, the GI50 [51] was 0.427 µM and the TGI [51] was 1.89 µM. It also gave a GI50 [52] of 1.47 µM and a TGI [52] of 8.66 µM.

Molecule `CCOC(=O)C1=CCCC[C@H]1S(=O)(=O)Nc1ccc(F)cc1Cl` has a GI50 [2] of 19.5 µM, a TGI [2] of 49.6 µM and a GI50 [3] of 32.1 µM. For the same molecule, the TGI [3] was > 100 µM, the GI50 [4] was 27.9 µM and the TGI [4] was 85.2 µM. It also gave a GI50 [7] of 14.8 µM, a TGI [7] of 28.9 µM and a GI50 [8] of 28.4 µM. The TGI [8] was 62.8 µM, the GI50 [53] was 19.4 µM and the TGI [53] was 44.3 µM. For the same molecule, the GI50 [54] was 18.4 µM, the TGI [54] was 37.3 µM and the GI50 [11] was 10.6 µM. The TGI [11] was 22.7 µM, the GI50 [12] was 19.4 µM and the TGI [12] was 73.7 µM. For the same molecule, the GI50 [13] was 16.9 µM, the TGI [13] was 39.8 µM and the GI50 [14] was 16.1 µM. For the same molecule, the TGI [14] was 42.2 µM, the GI50 [15] was 29.8 µM and the TGI [15] was > 100 µM. The GI50 [16] was 29.8 µM, the TGI [16] was > 100 µM and the GI50 [18] was 21 µM. The TGI [18] was 48.4 µM, the GI50 [20] was 21.9 µM and the TGI [20] was 68 µM. The GI50 [21] was 21.7 µM, the TGI [21] was 57.6 µM and the GI50 [22] was 14.1 µM. The TGI [22] was 33 µM, the GI50 [23] was 27.3 µM and the TGI [23] was > 100 µM. For the same molecule, the GI50 [24] was 31 µM, the TGI [24] was > 100 µM and the GI50 [25] was 12.4 µM. For the same molecule, the TGI [25] was 27.2 µM, the GI50 [27] was 18.8 µM and the TGI [27] was 52.3 µM. It also gave a GI50 [29] of 20.1 µM, a TGI [29] of 51.1 µM and a GI50 [55] of 18.6 µM. The TGI [55] was 39.4 µM, the GI50 [56] was 26.7 µM and the TGI [56] was 70.6 µM. The GI50 [34] was 15.6 µM, the TGI [34] was 38.6 µM and the GI50 [35] was 18.8 µM. The TGI [35] was 41 µM, the GI50 [39] was 19.2 µM and the TGI [39] was 52.5 µM. For the same molecule, the GI50 [41] was > 100 µM, the TGI [41] was > 100 µM and the GI50 [43] was 22.3 µM. It also gave a TGI [43] of 65.5 µM, a GI50 [44] of 18.4 µM and a TGI [44] of 48.4 µM. It also gave a GI50 [45] of 23.6 µM, a TGI [45] of 79.9 µM and a GI50 [46] of 20.4 µM. For the same molecule, the TGI [46] was 55.3 µM, the GI50 [57] was 11.4 µM and the TGI [57] was 24.1 µM. It also gave a GI50 [49] of 22 µM, a TGI [49] of 60.5 µM and a GI50 [50] of 18.1 µM. It also gave a TGI [50] of 41 µM, a GI50 [58] of 17.5 µM and a TGI [58] of 84.9 µM. For the same molecule, the GI50 [52] was 19 µM and the TGI [52] was 47.2 µM.
